Assay results: paper PMC10184511 (Neuro-Oncology Advances, 2023)

Key:
[1] = In vitro 3D BBB permeability assay; assay type: in vitro ADME; conditions: human, pH 7
BBB = conditions: previous report; cited from earlier work
[2] = description in words; cited from earlier work
[3] = tested on: p53-p21 axis in Mel-7 cells; assay: Western blotting of p53-p21 axis, cell-cycle proteins and Cyt c, Mel-7; assay type: cell-based, human; conditions: 24 hours
[4] = metastatic melanoma patients, 200 mg/m^2 TMZ; cited from earlier work

Papp A→B at 30 min, 100 μM [1]: 2.67 ×10⁻⁶ cm/s
Compound: Cn1nnc2c(C(N)=O)ncn2c1=O [TMZ, temozolomide]
BBB permeability (BBB): 2.7e-06 cm/s | lipophilicity [2]: lipophilic | Cyt c release into the cytoplasm ([3]; single agent, cytosolic fraction): increased | p53 levels ([3]; single-agent treatment, whole-cell lysate): substantially increased | Cmax [4]: ~ 20 μg/mL
